Results as given in PubChem BioAssay AID1963871 (Molecular Pharmacology Branch, DTP, NCI, 2024).

Tested on: KRAS-mutant PDC multicell tumor spheroid viability
Experiment: Anticancer human tumor 521955-158-R2-J5-PDC patient-derived pancreatic carcinoma cell line growth inhibition [KRAS2]
Conditions: for IC50: curve of first compound; for viability, T/C: stronger effect = lower value
Procedure, shortened: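 Combination screen of spheroid viability in tumor-cell co-cultures with endothelial (HUVEC) and mesenchymal stem cell stroma. Each agent was tested in half-log dilutions, topping at clinical Cmax or at 10 microM without a known Cmax.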

[1] = second compound 0.0316 µM, first compound 0.000316 µM
[2] = second compound 0.0316 µM, first compound 0.001 µM
[3] = second compound 0.0316 µM, first compound 0.00316 µM
[4] = second compound 0.0316 µM, first compound 0.01 µM
[5] = second compound 0.0316 µM, first compound 0.0316 µM
[6] = second compound 0.1 µM, first compound 0.000316 µM
[7] = second compound 0.1 µM, first compound 0.001 µM
[8] = second compound 0.1 µM, first compound 0.00316 µM
[9] = second compound 0.1 µM, first compound 0.01 µM
[10] = second compound 0.1 µM, first compound 0.0316 µM
[11] = second compound 0.316 µM, first compound 0.000316 µM
[12] = second compound 0.316 µM, first compound 0.001 µM
[13] = second compound 0.316 µM, first compound 0.00316 µM
[14] = second compound 0.316 µM, first compound 0.01 µM
[15] = second compound 0.316 µM, first compound 0.0316 µM
[16] = second compound 1 µM, first compound 0.000316 µM
[17] = second compound 1 µM, first compound 0.001 µM
[18] = second compound 1 µM, first compound 0.00316 µM
[19] = second compound 1 µM, first compound 0.01 µM
[20] = second compound 1 µM, first compound 0.0316 µM
[21] = second compound 3.16 µM, first compound 0.000316 µM
[22] = second compound 3.16 µM, first compound 0.001 µM
[23] = second compound 3.16 µM, first compound 0.00316 µM
[24] = second compound 3.16 µM, first compound 0.01 µM
[25] = second compound 3.16 µM, first compound 0.0316 µM
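Note: viability read after seven days of drug exposure.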

Structure (SMILES) | IC50 (second compound 0.0316 µM) [nM] | IC50 (second compound 0.1 µM) [nM] | IC50 (second compound 0.316 µM) [nM] | IC50 (second compound 1 µM) [nM] | IC50 (second compound 3.16 µM) [nM] | viability, T/C [1] [%] | viability, T/C [2] [%] | viability, T/C [3] [%] | viability, T/C [4] [%] | viability, T/C [5] [%] | viability, T/C [6] [%] | viability, T/C [7] [%] | viability, T/C [8] [%] | viability, T/C [9] [%] | viability, T/C [10] [%] | viability, T/C [11] [%] | viability, T/C [12] [%] | viability, T/C [13] [%] | viability, T/C [14] [%] | viability, T/C [15] [%] | other results
CC(=O)Nc1cccc(-n2c(=O)n(C3CC3)c(=O)c3c(Nc4ccc(I)cc4F)n(C)c(=O)c(C)c32)c1 + C=CC(=O)N1CCN(c2nc(OCC3CCCN3C)nc3c2CCN(c2cccc4cccc(C)c24)C3)CC1CC#N | 0.288 | 0.289 | 0.194 | 0.245 | < 0.1 | 44.9 | 34.6 | 26.5 | 20.1 | 15 | 51.6 | 30.3 | 23.8 | 18.4 | 10.5 | 46.9 | 27.5 | 21.7 | 18.9 | 8.09 | viability, T/C (second compound 0.0316 µM, first compound 0.0001 µM): 74.2%; viability, T/C (second compound 0.1 µM, first compound 0.0001 µM): 61.9%; viability, T/C (second compound 0.316 µM, first compound 0.0001 µM): 57.5%; viability, T/C (second compound 1 µM, first compound 0.0001 µM): 69.7%; viability, T/C [16]: 43.6%; viability, T/C [17]: 27.8%; viability, T/C [18]: 24.3%; viability, T/C [19]: 18.2%; viability, T/C [20]: 9.76%; viability, T/C (second compound 3.16 µM, first compound 0.0001 µM): 3.74%; viability, T/C [21]: 5.29%; viability, T/C [22]: 0.31%; viability, T/C [23]: 1.92%; viability, T/C [24]: 0.67%; viability, T/C [25]: 0.24%
CC(C)n1nc(-c2ccc3oc(N)nc3c2)c2c(N)ncnc21 + C=CC(=O)N1CCN(c2nc(OCC3CCCN3C)nc3c2CCN(c2cccc4cccc(C)c24)C3)CC1CC#N | 9.53 | 6.8 | 6.39 | 3.33 | < 0.316 | 105 | 97.1 | 68.1 | 49.6 | 36.9 | 94.6 | 90.7 | 62.5 | 43.6 | 31.5 | 92.6 | 90.6 | 59 | 44.6 | 27 | viability, T/C (second compound 0.0316 µM, first compound 0.1 µM): 25.6%; viability, T/C (second compound 0.1 µM, first compound 0.1 µM): 24.3%; viability, T/C (second compound 0.316 µM, first compound 0.1 µM): 22.7%; viability, T/C [16]: 76.5%; viability, T/C [17]: 70.2%; viability, T/C [18]: 49.1%; viability, T/C [19]: 33.5%; viability, T/C [20]: 23.3%; viability, T/C (second compound 1 µM, first compound 0.1 µM): 18.3%; viability, T/C [21]: 33.7%; viability, T/C [22]: 17.6%; viability, T/C [23]: 25.6%; viability, T/C [24]: 7.26%; viability, T/C [25]: 17%; viability, T/C (second compound 3.16 µM, first compound 0.1 µM): 14.5%
